Tests used:
[1] = tested on: MAO; experiment: Inhibition of MAO - In vitro (14C p-tyramine substrate, partially purified rat brain mitochondria); assay type: biochemical; conditions: tested as hydrochloride salt, read-out: IC50 (MAO inhibitory activity - In vitro)
Source text: (A) The ability of a compound of Formula I or II to inhibit MAO can be determined in vitro by the method of A. Christmas et al, Br. J. Pharmacol. 45, 490 (1972) in partially purified mitochondria from rat brain using ^14 C p-tyramine as the substrate.

[2] = tested on: MAO; experiment: Inhibition of MAO - Ex vivo, rat (14C p-tyramine substrate); assay type: in vivo; conditions: for % Inhibition of MAO - Duodenum / % Inhibition of MAO - Heart / % Inhibition of MAO - Liver: 0.1 mg/kg iv, 2 hr; for % Inhibition of MAO - Brain: 18 hr
Procedure: The ability of a compound of Formula I or II to inhibit MAO can be determined ex vivo by the following procedure:
The test compound is administered intraperitoneally (ip), intravenously (iv), or orally (po) to rats or mice and the animals are killed at various times after treatment. […] MAO activity is determined in the homogenates using ^14 C p-tyramine, as the substrate. […] Selectivity can be determined by repeating the above-described test using either ^14 C 5-hydroxytryptamine (for MAO-A) or ^14 C phenethylamine (for MAO-B) as the substrate for determining the % inhibition

[3] = tested on: MAO-B versus MAO-A; experiment: Selectivity of MAO inhibitors - In vitro (14C 5-hydroxytryptamine for MAO-A, 14C phenethylamine for MAO-B); assay type: biochemical, rat; conditions: for Selectivity (ratio of inhibitory activity against MAO-B versus MAO-A): in vitro, rat brain mitochondria
Procedure: Mitochondria are prepared from rat brain by homogenation in phosphate buffer (0.1 M, pH 7.2) followed by differential centrifugation. The mitochondria are suspended in the same buffer, the test compound is added at the desired concentration, and the system is incubated. […] Christmas, et al, supra).
Selectivity is expressed as the ratio of the inhibitory activity against MAO-B versus the inhibitory activity against MAO-A.

[4] = tested on: heart rate response to p-tyramine; experiment: Cheese effect: potentiation of heart-rate response to p-tyramine in rats; conditions: rat
Procedure: The following test procedure can be employed to assess the potential of a compound of Formula I or II for producing the "cheese effect":
Rats are administered an intravenous injection of the test compound at various dosage levels, and 30 minutes later the rats are challenged with several intravenous or intraduodenal dodes of p-tyramine. The heart rate response is measured.

C=C(CN)c1cccc(O)c1 [2-(3-hydroxy)phenylallylamine, 2-(3'-Hydroxy)phenylallylamine]
IC50 [1]: 0.25 µM

C=C(CN)c1cccc(OC)c1 [2-(3-methoxy)phenylallylamine, 2-(3'-Methoxy)phenylallylamine]
IC50 [1]: 10 µM

NCC(=C(Br)Br)c1ccccc1 [2-phenyl-3,3-dibromoallylamine, 2-Phenyl-3,3-dibromoallylamine]
IC50 [1]: 500 µM

NCC(=C(F)F)c1ccccc1 [2-phenyl-3,3-difluoroallylamine, 2-Phenyl-3,3-difluoroallylamine]
IC50 [1]: 10 µM

NCC(=CBr)c1ccccc1 [2-phenyl-3-bromoallylamine, 2-Phenyl-3-bromoallylamine]
IC50 [1]: 40 µM

C=C(CN)c1ccccc1 [2-phenylallylamine, 2-Phenylallylamine]
IC50 [1]: 400 µM

COc1ccccc1/C(=C\F)CN [(E)-2-(2'-Methoxy)phenyl-3-fluoroallylamine]
IC50 [1]: 2.5 µM

COc1cccc(/C(=C\F)CN)c1 [(E)-2-(3'-Methoxy)phenyl-3-fluoroallylamine]
% Inhibition of MAO - Duodenum [2]: 90%
% Inhibition of MAO - Heart [2]: 98%
% Inhibition of MAO - Liver [2]: 70%
Selectivity (ratio of inhibitory activity against MAO-B versus MAO-A) [3]: 4
IC50 [1]: 0.005 µM

NC/C(=C/F)c1cccc(O)c1 [(E)-2-(3'-hydroxy)phenyl-3-fluoroallylamine]
IC50 [1]: 0.05 µM

NC/C(=C/F)c1cccc(C(F)(F)F)c1 [(E)-2-(3'-trifluoromethyl)phenyl-3-fluoroallylamine]
IC50 [1]: 0.007 µM

NC/C(=C/F)c1ccc(Cl)cc1 [(E)-2-(4'-Chloro)phenyl-3-fluoroallylamine]
Selectivity (ratio of inhibitory activity against MAO-B versus MAO-A) [3]: 10
IC50 [1]: 0.02 µM

COc1ccc(C/C(=C\F)CN)cc1 [(E)-2-(4'-Methoxy)benzyl-3-fluoroallylamine]
selectivity for MAO-B as compared to MAO-A (in words) [3]: marked selectivity for MAO-B as compared to MAO-A
Selectivity (ratio of inhibitory activity against MAO-B versus MAO-A) [3]: 500
IC50 [1]: 3 µM

COc1ccc(/C(=C\F)CN)cc1 [(E)-2-(4'-Methoxy)phenyl-3-fluoroallyl amine]
% Inhibition of MAO - Duodenum [2]: 80%
% Inhibition of MAO - Heart [2]: 50%
% Inhibition of MAO - Liver [2]: 30%
% Inhibition of MAO - Brain ([2]; 1.0 mg/kg po): 86%
% Inhibition of MAO - Brain ([2]; 5.0 mg/kg po): 97%
Potentiation of heart-rate response to p-tyramine ([4]; dose 0.1 (iv), p-tyramine i.d.): 2.0 fold
Potentiation of heart-rate response to p-tyramine ([4]; dose 0.1 (iv), p-tyramine i.v.): 1.4 fold
Potentiation of heart-rate response to p-tyramine ([4]; dose 1.0 (iv), p-tyramine i.d.): 4.6 fold
Potentiation of heart-rate response to p-tyramine ([4]; dose 1.0 (iv), p-tyramine i.v.): 5.2 fold
risk of producing the cheese effect (in words) ([4]; in vivo): significantly decreased risk

NC/C(=C/F)Cc1ccccc1 [(E)-2-benzyl-3-fluoroallylamine, (E)-2-2-Benzyl-3-fluoroallylamine]
selectivity for MAO-B as compared to MAO-A (in words) [3]: marked selectivity for MAO-B as compared to MAO-A
Selectivity (ratio of inhibitory activity against MAO-B versus MAO-A) [3]: 200
IC50 [1]: 7.5 µM

NC/C(=C/Cl)c1ccccc1 [(E)-2-phenyl-3-chloroallylamine, (E)-2-Phenyl-3-chloroallylamine]
IC50 [1]: 100 µM

CCNC/C(=C/F)c1cccc(OC)c1 [(E)-N-Ethyl 2-(3'-methoxy)phenyl-3-fluoroallylamine]
IC50 [1]: 3 µM

CCNC/C(=C/F)c1ccc(OC)c(OC)c1 [(E)-N-ethyl 2-(3',4'-dimethoxy)phenyl-3-fluoroallylamine]
IC50 [1]: 70 µM

NC/C(=C\F)c1ccccc1 [(Z)-2-phenyl-3-fluoroallylamine, (Z)-2-Phenyl-3-fluoroallylamine]
IC50 [1]: 1 µM
